Measured values as given in ChEMBL document CHEMBL1201862, “PubChem BioAssay data set” (2004).
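These data come from cells grown in 96-well plates and exposed to compound for 48 hours at five concentrations. At the GI50, growth is halved.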 Active and inactive are the calls of the source. Rule as the data show it: active = GI50 up to about 1.1 µM and inactive = higher.

Experiments:
Test in all cases: DTP human tumour cell line panel, 48 h
[1] = system: CAKI-1
[2] = system: HL-60
[3] = system: HOP-92
[4] = system: K562
[5] = system: KM12
[6] = system: LOX IMVI
[7] = system: MCF7
[8] = system: Malme-3M
[9] = system: OVCAR-4
[10] = system: RPMI-8226
[11] = system: SF-295
[12] = system: SNB-75
[13] = system: U-251
[14] = system: A549
[15] = system: ACHN
[16] = system: DMS-114
[17] = system: EKVX
[18] = system: HCC 2998
[19] = system: SNB-78
[20] = system: DLD-1

| SMILES | GI50 [1] | GI50 [2] | GI50 [3] | GI50 [4] | GI50 [5] | GI50 [6] | GI50 [7] | GI50 [8] | GI50 [9] | GI50 [10] | GI50 [11] | GI50 [12] | GI50 [13] | GI50 [14] | GI50 [15] | GI50 [16] | GI50 [17] | GI50 [18] | GI50 [19] | GI50 [20] |
| --- | --- | --- | --- | --- | --- | --- | --- | --- | --- | --- | --- | --- | --- | --- | --- | --- | --- | --- | --- | --- |
| O=C(N/N=C\c1cccc2ccccc12)Nc1ccccc1 | > 100 µM (inactive) | > 10 µM (inactive) | > 100 µM (inactive) | > 100 µM (inactive) | > 100 µM (inactive) | > 100 µM (inactive) | > 100 µM (inactive) | > 100 µM (inactive) | > 100 µM (inactive) | > 100 µM (inactive) | > 100 µM (inactive) | > 100 µM (inactive) | > 100 µM (inactive) | – | – | – | – | – | – | – |
| O=C1CCC(c2ccc(Cl)cc2)=NN1c1nsc2ccccc12 | – | 20 µM (inactive) | 21.5 µM (inactive) | 22.2 µM (inactive) | 29.2 µM (inactive) | > 10 µM (inactive) | – | – | 36.1 µM (inactive) | 19.3 µM (inactive) | – | 5.77 µM (inactive) | 34.1 µM (inactive) | 37.9 µM (inactive) | 34.1 µM (inactive) | 27.9 µM (inactive) | 23.3 µM (inactive) | 18.2 µM (inactive) | 25.4 µM (inactive) | – |
| COC(=O)Cc1c(-c2c(CC(=O)OC)c3ccccc3n2C2OC(COC(C)=O)C(OC(C)=O)C(OC(C)=O)C2OC(C)=O)[nH]c2ccccc12 (configuration not stated) | > 100 µM (inactive) | – | > 100 µM (inactive) | – | 85.3 µM (inactive) | – | – | > 100 µM (inactive) | > 100 µM (inactive) | > 100 µM (inactive) | 90.8 µM (inactive) | – | > 100 µM (inactive) | > 100 µM (inactive) | – | – | > 100 µM (inactive) | > 100 µM (inactive) | – | – |
| CCCCCCc1ccc(O)cc1O [HEXYLRESORCINOL] | – | 30.8 µM (inactive) | 30.6 µM (inactive) | 44.8 µM (inactive) | 62.2 µM (inactive) | > 100 µM (inactive) | 81.1 µM (inactive) | 48 µM (inactive) | 48.5 µM (inactive) | 32.1 µM (inactive) | 46.8 µM (inactive) | 28.8 µM (inactive) | 40.4 µM (inactive) | 40.6 µM (inactive) | – | – | > 64.7 µM (inactive) | > 100 µM (inactive) | > 72.8 µM (inactive) | 72.6 µM (inactive) |
| O=C1CNC(=O)N1 [HYDANTOIN] | > 1120 µM (inactive) | > 1120 µM (inactive) | > 11.2 µM (inactive) | 706 µM (inactive) | > 1120 µM (inactive) | > 1120 µM (inactive) | > 1120 µM (inactive) | > 1120 µM (inactive) | > 1120 µM (inactive) | > 1120 µM (inactive) | > 1120 µM (inactive) | 177 µM (inactive) | > 1120 µM (inactive) | > 1120 µM (inactive) | – | > 1120 µM (inactive) | > 1120 µM (inactive) | > 1120 µM (inactive) | > 1120 µM (inactive) | > 1120 µM (inactive) |
| CC(=O)CC(=O)CCC(=O)O [SUCCINYLACETONE] | > 100 µM (inactive) | > 100 µM (inactive) | < 0.01 µM (active) | > 100 µM (inactive) | 47.4 µM (inactive) | > 100 µM (inactive) | – | > 100 µM (inactive) | – | – | > 100 µM (inactive) | < 0.01 µM (active) | > 100 µM (inactive) | > 100 µM (inactive) | > 100 µM (inactive) | > 100 µM (inactive) | > 100 µM (inactive) | > 100 µM (inactive) | > 100 µM (inactive) | > 100 µM (inactive) |
